Laboratory results reported in US8927580B2, “Thiosemicarbazone compounds and use in the treatment of cancer” (Oncochel Therapeutics LLC, priority 2010, dated 2015).

Columns and labels:
[1] = tested on: SK-N-MC neuroepithelioma cells; experiment: Iron uptake assay (59Fe uptake from 59Fe-transferrin); assay type: cell-based, human; details: 25 μM chelator, 3 h at 37° C., 59Fe-Tf
Experimental: Cells were cultured in the same way as for the iron efflux experiments. […] At the end of the incubation the culture dishes were placed on ice, the media aspirated, and the cells washed 4 times with ice cold PBS. Protease (1 mL; 1 mg/mL; Sigma-Aldrich, NSW, Australia) solution was added to each plate and allowed to incubate on ice for 30 min. This facilitated the removal of membrane bound ^59Fe-Tf. Cells were then scraped from the plastic surface using a Teflon spatula and collected in Eppendorf tubes. These were centrifuged at 10000 rpm and 4° C. for 3 min. The supernatant was then transferred into counting tubes and the cell pellet resuspended in PBS before also being transferred into another set of counting tubes. Radioactivity was measured using a Wallac Wizard 3″ Gamma Counter (PerkinElmer, MA, USA). Results are expressed as average ^59Fe content of the cellular fraction as a percentage of the control value.

[2] = DMS-53 xenograft oral study: body and organ weights, haematology, biochemistry, histology; assay type: in vivo, nude mice (BALBc nu/nu); details: for Alanine Aminotransferase (ALT) / Albumin / Alkaline Phosphatase (ALP) / Cholesterol / Haematocrit (HCT) / Haemoglobin (HGB) / Platelets / Serum Iron / Total Iron-Binding Capacity (TIBC) / Triglyceride / Unsaturated Iron-Binding Capacity (UIBC) / White Blood Cell (WBC): oral gavage 21 days; for Red Blood Cell (RBC): oral gavage for 21 days, 3 days/week; for Body weight (% initial) / Brain weight / Heart weight / Kidney weight / Liver weight / Lung weight / Spleen weight: oral
[3] = tested on: SK-N-MC neuroepithelioma cells; experiment: Iron efflux assay (59Fe release from pre-labeled cells); assay type: cell-based, human; details: 25 μM chelator, 3 h at 37° C.
Experimental: The culture dishes were then placed on ice, the supernatant containing excess ^59Fe-Tf was aspirated and the cells washed 4 times with ice-cold PBS. […] After 3 h the culture dishes were again placed on ice, the media was collected in counting tubes and this provided a measurement of released ^59Fe. Ice-cold PBS (1 mL) was added to plates containing cells and cells were scraped from the plastic surface using a Teflon spatula and also collected in counting tubes. These tubes represent the intracellular ^59Fe content. Results are expressed as total ^59Fe released as a percentage of total ^59Fe present. Radioactivity was measured using a Wallac Wizard 3″ Gamma Counter (PerkinElmer, MA, USA).

[4] = tested on: DMS-53 human lung carcinoma; experiment: DMS-53 xenograft in nude mice, oral gavage: tumour growth; assay type: in vivo, nude mice (BALBc nu/nu); details: for Tumour weight: 21 days; for net tumour size (% of initial tumour volume): after 21 days
[5] = tested on: SK-N-MC neuroepithelioma cell line; experiment: MTT anti-proliferative assay in SK-N-MC cells; assay type: cell-based, human; details: Homo sapiens, 72 h at 37° C., mean±SD (3 experiments)
Experimental: The cells were maintained in minimum essential media (MEM; Invitrogen, CA, USA) which contained 10% fetal calf serum (FCS; JRH Biosciences, Kansas, USA), 1% non-essential amino acids (Gibco, Victoria, Australia), 1% penicillin/streptomycin/glutamine (Gibco, VIC, Australia) and fungizone ([…]; Squibb Pharmaceuticals, Montreal, Canada).
The ability of the compounds to inhibit cellular proliferation was assessed initially in SK-N-MC cells by the MTT assay.
Table 1. […] Cells were seed and allowed to attach to wells for 24 h and then incubated for 72 h at 37° C. with control medium or the chelators.

[6] = tested on: DMS-53 human lung carcinoma; experiment: DMS-53 xenograft in nude mice, i.v. administration: tumour growth; assay type: in vivo, nude mice (BALBc nu/nu); details: after 25 days, 4 or 6 mg/kg

## CCN(C)C(=S)NN=C(c1ccccn1)c1ccccn1 [Dp4e4mT, di-2-pyridylketone 4-ethyl-4-methyl-3-thiosemicarbazone]
[1]
  cellular 59Fe uptake (% of the control): 12%
[2]; 2.5 mg/kg
  Alanine Aminotransferase (ALT): 73.1 U/L
  Albumin: 31.3 g/L
  Alkaline Phosphatase (ALP): 85.7 U/L
  Cholesterol: 2.44 mmol/L
  Haematocrit (HCT): 44%
  Haemoglobin (HGB): 148 g/L
  Platelets: 1047 10^9/L
  Serum Iron: 25.5 µmol/L
  Total Iron-Binding Capacity (TIBC): 56.7 µmol/L
  Triglyceride: 1.00 mmol/L
  Unsaturated Iron-Binding Capacity (UIBC): 57.9 µmol/L
  White Blood Cell (WBC): 2.68 10^9/L
  Red Blood Cell (RBC): 10.55 10^12/L
  Body weight (% initial): 94.1 ± 1.3 % initial
  Brain weight: 0.372 ± 0.006 g
  Heart weight: 0.078 ± 0.002 g
  Kidney weight: 0.194 ± 0.005 g
  Liver weight: 0.87 ± 0.02 g
  Lung weight: 0.121 ± 0.005 g
  Spleen weight: 0.075 ± 0.004 g
[2]; 5 mg/kg
  Alanine Aminotransferase (ALT): 44.9 U/L
  Albumin: 30.4 g/L
  Alkaline Phosphatase (ALP): 61.7 U/L
  Cholesterol: 2.63 mmol/L
  Haematocrit (HCT): 43%
  Haemoglobin (HGB): 143 g/L
  Platelets: 973 10^9/L
  Serum Iron: 31.0 µmol/L
  Total Iron-Binding Capacity (TIBC): 53.1 µmol/L
  Triglyceride: 0.57 mmol/L
  Unsaturated Iron-Binding Capacity (UIBC): 66.9 µmol/L
  White Blood Cell (WBC): 1.80 10^9/L
  Red Blood Cell (RBC): 10.26 10^12/L
  Body weight (% initial): 91.6 ± 2.4 % initial
  Brain weight: 0.367 ± 0.007 g
  Heart weight: 0.078 ± 0.002 g
  Kidney weight: 0.187 ± 0.006 g
  Liver weight: 0.77 ± 0.02 g
  Lung weight: 0.117 ± 0.003 g
  Spleen weight: 0.075 ± 0.004 g
[2]; 7.5 mg/kg
  Alanine Aminotransferase (ALT): 57.2 U/L
  Albumin: 31.3 g/L
  Alkaline Phosphatase (ALP): 87.2 U/L
  Cholesterol: 2.78 mmol/L
  Haematocrit (HCT): 45%
  Haemoglobin (HGB): 151 g/L
  Platelets: 834 10^9/L
  Serum Iron: 32.8 µmol/L
  Total Iron-Binding Capacity (TIBC): 56.8 µmol/L
  Triglyceride: 0.67 mmol/L
  Unsaturated Iron-Binding Capacity (UIBC): 64.9 µmol/L
  White Blood Cell (WBC): 3.08 10^9/L
  Red Blood Cell (RBC): 10.85 10^12/L
  Body weight (% initial): 91.6 ± 2.2 % initial
  Brain weight: 0.356 ± 0.007 g
  Heart weight: 0.092 ± 0.005 g
  Kidney weight: 0.193 ± 0.008 g
  Liver weight: 0.83 ± 0.03 g
  Lung weight: 0.119 ± 0.004 g
  Spleen weight: 0.061 ± 0.009 g
[2]; 10 mg/kg
  Alanine Aminotransferase (ALT): 63.4 U/L
  Albumin: 29.3 g/L
  Alkaline Phosphatase (ALP): 89.5 U/L
  Cholesterol: 2.46 mmol/L
  Haematocrit (HCT): 44%
  Haemoglobin (HGB): 142 g/L
  Platelets: 917 10^9/L
  Serum Iron: 21.2 µmol/L
  Total Iron-Binding Capacity (TIBC): 60.2 µmol/L
  Triglyceride: 0.94 mmol/L
  Unsaturated Iron-Binding Capacity (UIBC): 50.1 µmol/L
  White Blood Cell (WBC): 3.27 10^9/L
  Red Blood Cell (RBC): 10.18 10^12/L
[3]
  cellular 59Fe mobilised (59Fe released as percentage of total 59Fe): 38%
[4]; 2.5 mg/kg
  Tumour weight: 0.63 ± 0.17 g
[4]; 5 mg/kg
  Tumour weight: 0.89 ± 0.14 g
[4]; 7.5 mg/kg
  Tumour weight: 0.60 ± 0.15 g
  net tumour size (% of initial tumour volume): 404%
[4]; 10 mg/kg
  net tumour size (% of initial tumour volume): 284%
[5]
  IC50: 4.1 nM
[6]
  net tumour size (% of the initial tumour volume): 120-122%
